Measurements reported in ChEMBL document CHEMBL1146657, “A novel 18 beta-glycyrrhetinic acid analogue as a potent and selective inhibitor of 11 beta-hydroxysteroid dehydrogenase 2” (Bioorg Med Chem Lett, 2004).

Legend:
[1] = biological target: 11-beta-hydroxysteroid dehydrogenase 1 (Rattus norvegicus) (UniProt P16232); assay: Percent inhibition against 11-beta-hydroxysteroid dehydrogenase 1 of wistar rat liver cytosol at 10 uM was determined using [3H]cortisone
[2] = biological target: T1, 11-beta-hydroxysteroid dehydrogenase type 2 (Rattus norvegicus) (UniProt P50233); assay: (§1) Percent inhibition against 11-beta-hydroxysteroid dehydrogenase 2 of wistar rat kidney at 10 uM was determined using [3H]cortisol
T1 sequence (whole entry): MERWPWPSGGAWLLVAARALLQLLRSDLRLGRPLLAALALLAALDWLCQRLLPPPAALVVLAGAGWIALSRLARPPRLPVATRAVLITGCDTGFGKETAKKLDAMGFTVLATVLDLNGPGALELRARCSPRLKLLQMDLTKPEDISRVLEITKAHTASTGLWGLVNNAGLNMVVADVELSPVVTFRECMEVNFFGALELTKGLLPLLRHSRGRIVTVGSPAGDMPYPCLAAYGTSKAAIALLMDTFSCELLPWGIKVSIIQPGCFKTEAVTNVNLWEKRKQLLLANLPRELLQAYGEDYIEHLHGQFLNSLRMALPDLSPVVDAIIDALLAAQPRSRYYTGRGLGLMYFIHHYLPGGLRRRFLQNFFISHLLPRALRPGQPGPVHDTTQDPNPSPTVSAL

[3] = biological target: T2, 11-beta-hydroxysteroid dehydrogenase type 2 (Rattus norvegicus, UniProt P50233); assay: as §1
T2 sequence (P50233 whole entry): T1 sequence (whole entry)

Sequence of 11-beta-hydroxysteroid dehydrogenase 1 (Rattus norvegicus) (P16232 whole entry, looked up): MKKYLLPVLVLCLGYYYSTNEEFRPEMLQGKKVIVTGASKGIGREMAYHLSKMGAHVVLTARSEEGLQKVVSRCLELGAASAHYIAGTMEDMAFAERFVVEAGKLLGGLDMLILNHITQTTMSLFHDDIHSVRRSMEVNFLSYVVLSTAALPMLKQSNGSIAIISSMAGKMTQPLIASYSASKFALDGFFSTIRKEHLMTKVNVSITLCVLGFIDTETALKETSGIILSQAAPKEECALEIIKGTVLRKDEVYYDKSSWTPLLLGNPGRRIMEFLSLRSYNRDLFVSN

CC1(C)C2CC[C@]3(C)C(C(=O)C=C4[C@@H]5C[C@@](C)(C(=O)NCCN6CCOCC6)CC[C@]5(C)CC[C@]43C)[C@@]2(C)CC[C@@H]1O (some centres not stated)
inhibition [1]: 19% | inhibition [2]: 66%

CC1(C)C2CC[C@]3(C)C(C(=O)C=C4[C@@H]5C[C@@](C)(C(=O)NC6CC6)CC[C@]5(C)CC[C@]43C)[C@@]2(C)CC[C@@H]1O (some centres not stated)
inhibition [1]: 90% | inhibition [2]: 103%

CCOC(=O)[C@H](C)NC(=O)[C@@]1(C)CC[C@]2(C)CC[C@]3(C)C(=CC(=O)C4[C@@]5(C)CC[C@H](O)C(C)(C)C5CC[C@]43C)[C@@H]2C1 (some centres not stated)
inhibition [1]: 25% | inhibition [2]: 35%

CC1(C)C2CC[C@]3(C)C(C(=O)C=C4[C@@H]5C[C@@](C)(C(=O)NC6CCOC6=O)CC[C@]5(C)CC[C@]43C)[C@@]2(C)CC[C@@H]1O (some centres not stated)
inhibition [1]: 71% | inhibition [2]: 25%

CC1(C)[C@@H](O)CC[C@]2(C)[C@H]3C(=O)C=C4[C@@H]5C[C@@](C)(C(=O)O)CC[C@]5(C)CC[C@@]4(C)[C@]3(C)CC[C@@H]12
inhibition [1]: 85% | inhibition [2]: 101%

CC1(C)C2CC[C@]3(C)C(C(=O)C=C4[C@@H]5C[C@@](C)(C(=O)NCCO)CC[C@]5(C)CC[C@]43C)[C@@]2(C)CC[C@@H]1O (some centres not stated)
inhibition [1]: 36% | IC50 [3]: 4 pM | inhibition [2]: 92%

CC1(C)C2CC[C@]3(C)C(C(=O)C=C4[C@@H]5C[C@@](C)(C(=O)NCCCCCO)CC[C@]5(C)CC[C@]43C)[C@@]2(C)CC[C@@H]1O (some centres not stated)
inhibition [1]: 88% | inhibition [2]: 98%

CC1(C)C2CC[C@]3(C)C(C(=O)C=C4[C@@H]5C[C@@](C)(C(=O)NN6CCOCC6)CC[C@]5(C)CC[C@]43C)[C@@]2(C)CC[C@@H]1O (some centres not stated)
inhibition [1]: 34% | inhibition [2]: 20%
